This is an account of results in patent US8247538B2, “Preparation method of radioisotope labeling compound using carbon nanotube” (Korea Atomic Energy Research Institute, priority 2006, dated 2012).

A short description of the data set: In vivo dynamic kinetics, gamma camera imaging after intravenous injection. Conditions: rabbits, 100 μCi/0.1 ml into left ear vein. Set-up: species or system New Zealand White male rabbits. How it is done:
The ^99mTc-2,6-diisopropylacetanilidoiminodiacetic acid prepared in Example 1 was assayed for in vivo dynamic kinetics as follows.
After 6-week-old New Zealand White male rabbits (2887.6±101.5 g, n=3) were anesthetized with ketamine and xylazine, the radioactive compound of Example 1 was injected at a dose of 100 μCi/0.1 ml into the left ear vein of each of the rabbits. All of the rabbits were placed in a pronating posture. Moving pictures were taken for 30 min of each of the rabbits using a gamma camera fitted with a low energy, multipurpose collimator while 16 still pictures were also taken at predetermined time intervals. The image analyzer was set to 140 KeV with a 20% energy window. Image data were analyzed under the dynamic procedure of a Microdelta system (Simens, USA). The static images were taken at 1.52, 3.45, 5.37, 7.30, 9.22, 11.15, 13.07, 15.00, 16.52, 18.45, 20.37, 22.30, 24.22, 26.15, 28.07 and 30 min after the injection, and the results are given in FIG. 3.

Take “^99mTc-2,6-diisopropylacetanilidoiminodiacetic acid [Example 1]”: the “in vivo distribution seen in gamma camera images (FIG. 3)” value (images 1.52-30 min after injection) is on record as “detected prominently in the hepatobiliary system, with the highest concentration at the liver”. Also, for the setting “imaging for 30 min”, the “contrast ratio between images taken of the liver and of other organs, compared with conventional contrast media for imaging the hepatobiliary system” value is reported as “higher”.
